Earlier results, collected in patent publication US20180140592A1, “5-CHLORO-4-HYDROXY-1-METHYL-2-OXO-N-PHENYL-1,2-DIHYDROQUINOLINE-3-CARBOXAMIDE, SALTS AND USES THEREOF” (Teva Pharmaceutical Industries, Ltd., priority 2010, published 2018).

Key:
[1] = system: experimental inflammatory/autoimmune animal models; details: EAE, DSS induced colitis, NOD mice, EAN, SLE and others
[2] = system: acute experimental autoimmune encephalomyelitis (aEAE) model; details: U.S. Pat. No. 6,077,851
relapsing MS = details: Polman et al. 2005

For `CCN(C(=O)c1c(O)c2c(Cl)cccc2n(C)c1=O)c1ccccc1` [Laquinimod, N-ethyl-N-phenyl-1,2-dihydro-4-hydroxy-5-chloro-1-methyl-2-oxoquinoline-3-carboxamide], the “therapeutic effect in animal models” value [1] is listed as “demonstrated therapeutic effect”, the “efficacy in the aEAE model” value [2] is listed as “effective” and the “development of active MRI lesions” value (relapsing MS) is listed as “reduce development of active MRI lesions”.
